Reference: the NIST ThermoML archive (doi:10.1021/je060271a)

Settings: 303.15 K, Liquid, Vibrating tube method

CCCCCCCC(=O)OCC(COC(=O)CCCCCCC)(COC(=O)CCCCCCC)COC(=O)CCCCCCC [pentaerythritol tetraoctanoate]
Settings | mass density [kg/m3]
28411 kPa | 972
28450 kPa | 971.9
28485 kPa | 972
28563 kPa | 972.1
28635 kPa | 972
28718 kPa | 972.1
28794 kPa | 972.2
28833 kPa | 972.2
28858 kPa | 972
28881 kPa | 972.2
28903 kPa | 972.2
28932 kPa | 972.2
28954 kPa | 972.3
28977 kPa | 972.2
29007 kPa | 972.1
29030 kPa | 972.2
29057 kPa | 972.3
29081 kPa | 972.3
29107 kPa | 972.3
29129 kPa | 972.3
29159 kPa | 972.2
29182 kPa | 972.4
29208 kPa | 972.2
29237 kPa | 972.4
29263 kPa | 971.8
29291 kPa | 972.4
29316 kPa | 972.4
29341 kPa | 972.6
29366 kPa | 972.4
29397 kPa | 972.5
29422 kPa | 972.5
29447 kPa | 972.5
29476 kPa | 972.5
29501 kPa | 972.6
29527 kPa | 972.6
29551 kPa | 972.5
29579 kPa | 972.5
29610 kPa | 972.6
29627 kPa | 972.6
29648 kPa | 972.6
29671 kPa | 972.6
29696 kPa | 972.7
29725 kPa | 972.7
29750 kPa | 972.6
29775 kPa | 972.6
29807 kPa | 972.8
29827 kPa | 972.7
29857 kPa | 972.7
29882 kPa | 972.8
29912 kPa | 972.7
29937 kPa | 972.6
29963 kPa | 972.7
29993 kPa | 972.9
30018 kPa | 972.7
30044 kPa | 972.8
30069 kPa | 972.8
30100 kPa | 972.9
30125 kPa | 972.8
30151 kPa | 972.8
30183 kPa | 972.9
30209 kPa | 973
30234 kPa | 973
30260 kPa | 973
30291 kPa | 972.9
30317 kPa | 973
30343 kPa | 972.9
30374 kPa | 973
30400 kPa | 972.9
30431 kPa | 973.1
30457 kPa | 973
30483 kPa | 973.1
30510 kPa | 973.1
30541 kPa | 973
30568 kPa | 972.9
30595 kPa | 973.1
30626 kPa | 973.2
30652 kPa | 973.1
30685 kPa | 973.2
30711 kPa | 973.2
30738 kPa | 973.3
30765 kPa | 973.1
30797 kPa | 973.2
30824 kPa | 973.2
30852 kPa | 973.1
30884 kPa | 973.2
30911 kPa | 973.4
30938 kPa | 973.2
30971 kPa | 973.2
30998 kPa | 973.3
31025 kPa | 973.3
31057 kPa | 973.4
31085 kPa | 973.5
31113 kPa | 973.5
31145 kPa | 973.5
31172 kPa | 973.6
31206 kPa | 973.4
31234 kPa | 973.5
31261 kPa | 973.5
31290 kPa | 973.5
31323 kPa | 973.5
31351 kPa | 973.5
31380 kPa | 973.6
31413 kPa | 973.5
31442 kPa | 973.6
31469 kPa | 973.7
31503 kPa | 973.6
31532 kPa | 973.7
31560 kPa | 973.7
31589 kPa | 973.6
31624 kPa | 973.7
31653 kPa | 973.6
31681 kPa | 973.8
31715 kPa | 973.8
31744 kPa | 973.7
31773 kPa | 973.7
31808 kPa | 973.8
31836 kPa | 973.7
31865 kPa | 973.8
31900 kPa | 973.8
31929 kPa | 973.8
31958 kPa | 973.8
31994 kPa | 973.8
32025 kPa | 973.9
32055 kPa | 973.9
32084 kPa | 973.8
32120 kPa | 973.9
32150 kPa | 974
32179 kPa | 973.9
32215 kPa | 973.9
32244 kPa | 974
32274 kPa | 974
32311 kPa | 974
32340 kPa | 974
32370 kPa | 974.1
32407 kPa | 974
32432 kPa | 974.1
32469 kPa | 974.1
32499 kPa | 974.2
32535 kPa | 974.2
32566 kPa | 974.2
32596 kPa | 974.2
32626 kPa | 974.2
32663 kPa | 974.2
32693 kPa | 974.1
32730 kPa | 974.3
32761 kPa | 974.3
32792 kPa | 974.3
32829 kPa | 974.3
